Legend:
[1] = test system: Staphylococcus aureus; assay: Minimal synergizing concentration required to inhibit growth of Staphylococcus aureus strain 447 in the presence of 4 ug/mL of methicillin.; format: functional
[2] = test system: Staphylococcus aureus; assay: Ability of 40 ug to enlarge the zone of inhibition produced by 100 microg of methicillin in disk assay using Staphylococcus aureus strain 447; No synergy; format: functional, organism-based
[3] = test system: Staphylococcus aureus; assay: Minimum concentration required to inhibit growth of methicillin sensitive Staphylococcus aureus strain 446; format: functional
[4] = test system: Staphylococcus aureus; assay: Ability of 40 ug to enlarge the zone of inhibition produced by 100 microg of methicillin in disk assay using Staphylococcus aureus strain 447; synergy; format: functional, organism-based
[5] = test system: Staphylococcus aureus; assay: Minimum concentration required to inhibit growth of methicillin resistant Staphylococcus aureus strain 447; format: functional
[6] = test system: Staphylococcus aureus; assay: Ability of 40 ug to enlarge the zone of inhibition produced by 100 microg of methicillin in disk assay using Staphylococcus aureus strain 447; Synergy; format: functional, organism-based
[7] = Staphylococcus aureus, read-out: MIC

SMILES	MSC [1]	MIC [3, 7]	further results
O=C1N[C@@H](C(c2ccccc2)c2ccccc2)C(=O)N2CCC[C@@H]2C(=O)NCc2ccccc2-c2ccccc21	>100 µg/mL	> 100 µg/mL	Synergy with methicillin [2]: No synergy
O=C(N[C@@H](C(=O)N1CCC[C@H]1C(=O)N[C@H](CO)Cc1ccccc1)C(c1ccccc1)c1ccccc1)OCc1ccccc1	12.5 µg/mL	> 100 µg/mL	Synergy with methicillin [4]: synergy
O=C1N[C@@H](C(c2ccccc2)c2ccccc2)C(=O)N2CCCC2C(=O)N[C@](CO)(Cc2ccccc2)C(=O)Nc2ccccc21 (single isomer, unassigned)	>128 µg/mL	–	MIC [5]: >128 µg/mL; Synergy with methicillin [6]: Synergy
O=C1N[C@@H](C(c2ccccc2)c2ccccc2)C(=O)N2CCCC2C(=O)N[C@@](CO)(Cc2ccccc2)C(=O)Nc2ccccc21 (single isomer, unassigned)	>128 µg/mL	–	MIC [3]: >128 µg/mL
O=C1N[C@@H](C(c2ccccc2)c2ccccc2)C(=O)N2CCCC2C(=O)NC(CO)(Cc2ccccc2)C(=O)Nc2ccccc21 (single isomer, unassigned; 1a) [listing 1 of 2 here]	>100 µg/mL	> 128 µg/mL	MIC [5, 7]: > 100 µg/mL
O=C1N[C@@H](C(c2ccccc2)c2ccccc2)C(=O)N2CCCC2C(=O)NC(CO)(Cc2ccccc2)C(=O)Nc2ccccc21 (single isomer, unassigned; 1a) [listing 2 of 2 here]	–	–	Synergy with methicillin [2]: No synergy
O=C1N[C@@H](C(c2ccccc2)c2ccccc2)C(=O)N2CCCC2C(=O)NC(CO)(Cc2ccccc2)C(=O)Nc2ccccc21 (single isomer, unassigned; 1b) [listing 1 of 2 here]	100 µg/mL	> 100 µg/mL	–
O=C1N[C@@H](C(c2ccccc2)c2ccccc2)C(=O)N2CCCC2C(=O)NC(CO)(Cc2ccccc2)C(=O)Nc2ccccc21 (single isomer, unassigned; 1b) [listing 2 of 2 here]	–	–	Synergy with methicillin [6]: Synergy
